# In patent US11963995B2, “Methods comprising desmopressin” (Ferring B.V., priority 2008, dated 2024):
# How the values were obtained:
# [1] = test system: adult patients with nocturia; assay: Long term nocturnal voids, change from baseline up to week 52 (Parts II/III); format: in vivo, human; settings: for mean decrease in nocturnal voids per night at one year: Part III
# Text: To ensure that the study remained fully blinded during the full extent of both Parts I and II, re-randomization of subjects assigned to placebo after 4 weeks of treatment was predetermined at the time of initial randomization. […] The total treatment duration for each subject depended on when that subject was randomized in Part I and was estimated to be a minimum of 4 weeks and a maximum of 6 months. Upon completion of Part II of the study, subjects were given the option to participate in an open-label study with expected total treatment duration (double-blind extension plus open-label study) of at least 12 months (i.e., Part III). In Part III, subjects were assigned to the same treatment as in Part II, initially in a blinded manner. Subjects were unblinded and the study became open label only when all subjects in Parts I and II remaining in the study had entered Part III. During Part III, 10 μg was identified as a sub-therapeutic dose based on efficacy data from Part I. As a consequence, patients in the 10 μg treatment group were re-randomized (beginning Q4 2008) to one of the other treatment groups (i.e., 25 μg, 50 μg, or 100 μg). The total treatment duration was at least 12 months. A total of 508 patients entered the open-labeled extension (i.e., Part III). […] A summary of the changes from baseline is presented for all eligible subjects. […] However, based on the data below, the additional decreases in the number of voids can be characterized as clinically significant. As used here, “clinically significant” means a minimum worthwhile effect.
# [2] = test system: adult patients with nocturia; assay: Duration of total sleep time, change from baseline to Day 28 (Part I); format: in vivo, human; settings: final visit (Day 28)
# Experimental: All treatments were administered orally once per night approximately 1 hour prior to bedtime; subjects were instructed to limit their fluid intake prior to drug self-administration. […] Randomization was to be stratified by age (<65, ≥65 years) and by the absence/presence of nocturnal polyuria, defined as a ratio of nighttime urine volume/24-hour urine volume 33%. To achieve the desired number of subjects within each stratum, enrollment of subjects in a particular stratum (age and/or presence/absence of nocturnal polyuria) could be halted. If this was necessary, all investigative sites were to be informed in writing at least 1 week in advance to stop screening in a population of subjects.
# The secondary efficacy endpoints were: (1) durability of effect achieved in Part I; (2) change in initial period of undisturbed sleep, defined as the elapsed time in minutes from going to bed with the intention of sleeping to the time of awakening for the first nocturnal void; and (3) change in duration of total sleep time. Additional secondary endpoints were collected, e.g., change in nocturia-specific quality of life as assessed by scores on the International Consultation on Incontinence Modular Questionnaire—Noctuira and the Noctuira Quality of Life Questionnaire, change in quality of sleep as assessed by the global score of the Pittsburgh Sleep Quality Index, and change in overall quality of life as assessed by the short form—12v2. A description of the additional secondary efficacy endpoints and their accompanying data are not provided herein.
# Total sleep time increased in all treatment groups in Part I; however, no pattern was observed by dose of desmopressin. Based on F-tests of effects, computed overall sleep duration and reported overall sleep duration were statistically significant predictors of change from baseline to Day 28 in total sleep time (p<0.0001).
smiles,measurement,setting,value
NC(=O)CC[C@@H]1NC(=O)[C@H](Cc2ccccc2)NC(=O)[C@H](Cc2ccc(O)cc2)NC(=O)CCSSC[C@@H](C(=O)N2CCC[C@H]2C(=O)N[C@H](CCCN=C(N)N)C(=O)NCC(N)=O)NC(=O)[C@H](CC(N)=O)NC1=O [desmopressin],mean decrease in nocturnal voids per night at one year,"[1]; 25 μg, all eligible subjects",1.4 voids per night
same,"Change from baseline of nocturnal voids, Mean","[1]; 25 μg, all eligible female subjects, Day 28",−1.26
same,"Change from baseline of nocturnal voids, Mean","[1]; 25 μg, all eligible female subjects, Week 8",−1.51
same,"Change from baseline of nocturnal voids, Mean","[1]; 25 μg, all eligible female subjects, Week 12",−1.66
same,"Change from baseline of nocturnal voids, Mean","[1]; 25 μg, all eligible female subjects, Week 20",−1.68
same,"Change from baseline of nocturnal voids, Mean","[1]; 25 μg, all eligible female subjects, Week 28",−1.86
same,"Change from baseline of nocturnal voids, Mean","[1]; 25 μg, all eligible female subjects, Week 52",−1.75
same,"Change from baseline of nocturnal voids, Mean","[1]; 25 μg, all eligible male subjects, Day 28",−0.76
same,"Change from baseline of nocturnal voids, Mean","[1]; 25 μg, all eligible male subjects, Week 8",−0.84
same,"Change from baseline of nocturnal voids, Mean","[1]; 25 μg, all eligible male subjects, Week 12",−0.90
same,"Change from baseline of nocturnal voids, Mean","[1]; 25 μg, all eligible male subjects, Week 20",−1.25
same,"Change from baseline of nocturnal voids, Mean","[1]; 25 μg, all eligible male subjects, Week 28",−1.15
same,"Change from baseline of nocturnal voids, Mean","[1]; 25 μg, all eligible male subjects, Week 52",−1.13
same,"Change from baseline of nocturnal voids, Mean","[1]; 25 μg, all eligible subjects, Day 28",−0.98
same,"Change from baseline of nocturnal voids, Mean","[1]; 25 μg, all eligible subjects, Week 8",−1.16
same,"Change from baseline of nocturnal voids, Mean","[1]; 25 μg, all eligible subjects, Week 12",−1.29
same,"Change from baseline of nocturnal voids, Mean","[1]; 25 μg, all eligible subjects, Week 20",−1.48
same,"Change from baseline of nocturnal voids, Mean","[1]; 25 μg, all eligible subjects, Week 28",−1.44
same,"Change from baseline of nocturnal voids, Mean","[1]; 25 μg, all eligible subjects, Week 52",−1.41
same,"Change from baseline of nocturnal voids, Mean","[1]; 25 μg, all subjects with or without an assessment at week 52, Day 28",−0.96
same,"Change from baseline of nocturnal voids, Mean","[1]; 25 μg, all subjects with or without an assessment at week 52, Week 12",−1.42
same,"Change from baseline of nocturnal voids, Mean","[1]; 25 μg, all subjects with or without an assessment at week 52, Week 20",−1.61
same,"Change from baseline of nocturnal voids, Mean","[1]; 25 μg, all subjects with or without an assessment at week 52, Week 28",−1.39
same,"Change from baseline of nocturnal voids, Mean","[1]; 25 μg, all subjects with or without an assessment at week 52, Week 52",−1.41
same,"Change from baseline of nocturnal voids, Mean","[1]; 25 μg, all subjects with or without an assessment at week 52, time printed as ""Week"" (between Day 28 and Week 12)",−1.31
same,mean decrease in nocturnal voids per night at one year,"[1]; 50 μg, all eligible subjects",1.77 voids per night
same,"Change from baseline of nocturnal voids, Mean","[1]; 50 μg, all eligible female subjects, Day 28",−1.30
same,"Change from baseline of nocturnal voids, Mean","[1]; 50 μg, all eligible female subjects, Week 8",−1.60
same,"Change from baseline of nocturnal voids, Mean","[1]; 50 μg, all eligible female subjects, Week 12",−1.62
same,"Change from baseline of nocturnal voids, Mean","[1]; 50 μg, all eligible female subjects, Week 20",−1.93
same,"Change from baseline of nocturnal voids, Mean","[1]; 50 μg, all eligible female subjects, Week 28",−1.89
same,"Change from baseline of nocturnal voids, Mean","[1]; 50 μg, all eligible female subjects, Week 52",−1.95
same,"Change from baseline of nocturnal voids, Mean","[1]; 50 μg, all eligible male subjects, Day 28",−1.16
same,"Change from baseline of nocturnal voids, Mean","[1]; 50 μg, all eligible male subjects, Week 8",−1.31
same,"Change from baseline of nocturnal voids, Mean","[1]; 50 μg, all eligible male subjects, Week 12",−1.30
same,"Change from baseline of nocturnal voids, Mean","[1]; 50 μg, all eligible male subjects, Week 20",−1.73
same,"Change from baseline of nocturnal voids, Mean","[1]; 50 μg, all eligible male subjects, Week 28",−1.28
same,"Change from baseline of nocturnal voids, Mean","[1]; 50 μg, all eligible male subjects, Week 52",−1.69
same,"Change from baseline of nocturnal voids, Mean","[1]; 50 μg, all eligible subjects, Day 28",−1.22
same,"Change from baseline of nocturnal voids, Mean","[1]; 50 μg, all eligible subjects, Week 8",−1.44
same,"Change from baseline of nocturnal voids, Mean","[1]; 50 μg, all eligible subjects, Week 12",−1.44
same,"Change from baseline of nocturnal voids, Mean","[1]; 50 μg, all eligible subjects, Week 20",−1.80
same,"Change from baseline of nocturnal voids, Mean","[1]; 50 μg, all eligible subjects, Week 28",−1.55
same,"Change from baseline of nocturnal voids, Mean","[1]; 50 μg, all eligible subjects, Week 52",−1.80
same,"Change from baseline of nocturnal voids, Mean","[1]; 50 μg, all subjects with or without an assessment at week 52, Week 12",−1.51
same,"Change from baseline of nocturnal voids, Mean","[1]; 50 μg, all subjects with or without an assessment at week 52, Week 20",−1.71
same,"Change from baseline of nocturnal voids, Mean","[1]; 50 μg, all subjects with or without an assessment at week 52, Week 28",−1.55
same,"Change from baseline of nocturnal voids, Mean","[1]; 50 μg, all subjects with or without an assessment at week 52, Week 52",−1.80
same,"Change from baseline of nocturnal voids, Mean","[1]; 50 μg, all subjects with or without an assessment at week 52, time printed as ""Day"" (after Day 0)",−1.10
same,"Change from baseline of nocturnal voids, Mean","[1]; 50 μg, all subjects with or without an assessment at week 52, time printed as ""Week"" (before Week 12)",−1.43
same,mean decrease in nocturnal voids per night at one year,"[1]; 100 μg, all eligible subjects",2.11 voids per night
same,"Change from baseline of nocturnal voids, Mean","[1]; 100 μg, all eligible female subjects, Day 28",−1.50
same,"Change from baseline of nocturnal voids, Mean","[1]; 100 μg, all eligible female subjects, Week 8",−1.69
same,"Change from baseline of nocturnal voids, Mean","[1]; 100 μg, all eligible female subjects, Week 12",−1.79
same,"Change from baseline of nocturnal voids, Mean","[1]; 100 μg, all eligible female subjects, Week 20",−1.98
same,"Change from baseline of nocturnal voids, Mean","[1]; 100 μg, all eligible female subjects, Week 28",−1.75
same,"Change from baseline of nocturnal voids, Mean","[1]; 100 μg, all eligible female subjects, Week 52",−2.11
same,"Change from baseline of nocturnal voids, Mean","[1]; 100 μg, all eligible male subjects, Day 28",−1.31
same,"Change from baseline of nocturnal voids, Mean","[1]; 100 μg, all eligible male subjects, Week 8",−1.52
same,"Change from baseline of nocturnal voids, Mean","[1]; 100 μg, all eligible male subjects, Week 12",−1.89
same,"Change from baseline of nocturnal voids, Mean","[1]; 100 μg, all eligible male subjects, Week 20",−1.92
same,"Change from baseline of nocturnal voids, Mean","[1]; 100 μg, all eligible male subjects, Week 28",−1.92
same,"Change from baseline of nocturnal voids, Mean","[1]; 100 μg, all eligible male subjects, Week 52",−2.12
same,"Change from baseline of nocturnal voids, Mean","[1]; 100 μg, all eligible subjects, Day 28",−1.406
same,"Change from baseline of nocturnal voids, Mean","[1]; 100 μg, all eligible subjects, Week 8",−1.61
same,"Change from baseline of nocturnal voids, Mean","[1]; 100 μg, all eligible subjects, Week 12",−1.83
same,"Change from baseline of nocturnal voids, Mean","[1]; 100 μg, all eligible subjects, Week 20",−1.95
same,"Change from baseline of nocturnal voids, Mean","[1]; 100 μg, all eligible subjects, Week 28",−1.83
same,"Change from baseline of nocturnal voids, Mean","[1]; 100 μg, all eligible subjects, Week 52",−2.11
same,"Change from baseline of nocturnal voids, Mean","[1]; 100 μg, all subjects with or without an assessment at week 52, Day 28",−1.31
same,"Change from baseline of nocturnal voids, Mean","[1]; 100 μg, all subjects with or without an assessment at week 52, Week 8",−1.47
same,"Change from baseline of nocturnal voids, Mean","[1]; 100 μg, all subjects with or without an assessment at week 52, Week 12",−1.73
same,"Change from baseline of nocturnal voids, Mean","[1]; 100 μg, all subjects with or without an assessment at week 52, Week 20",−1.86
same,"Change from baseline of nocturnal voids, Mean","[1]; 100 μg, all subjects with or without an assessment at week 52, Week 52",−2.11
same,"Change from baseline of nocturnal voids, Mean","[1]; 100 μg, all subjects with or without an assessment at week 52, time printed as ""Week"" (between Week 20 and Week 52)",−1.80
same,"Total Sleep Time, Calculated Sleep Time, Change from Baseline, Mean",[2]; 10 μg,9.7 min
same,"Total Sleep Time, Calculated Sleep Time, Change from Baseline, Median",[2]; 10 μg,10.0 min
same,"Total Sleep Time, Reported Sleep Time, Change from Baseline, Mean",[2]; 10 μg,7.8 min
same,"Total Sleep Time, Reported Sleep Time, Change from Baseline, Median",[2]; 10 μg,10.0 min
same,"Total Sleep Time, Calculated Sleep Time, Change from Baseline, Mean",[2]; 25 μg,19.7 min
same,"Total Sleep Time, Calculated Sleep Time, Change from Baseline, Median",[2]; 25 μg,15.3 min
same,"Total Sleep Time, Reported Sleep Time, Change from Baseline, Mean",[2]; 25 μg,15.9 min
same,"Total Sleep Time, Reported Sleep Time, Change from Baseline, Median",[2]; 25 μg,10.0 min
same,"Total Sleep Time, Calculated Sleep Time, Change from Baseline, Mean",[2]; 50 μg,24.2 min
same,"Total Sleep Time, Calculated Sleep Time, Change from Baseline, Median",[2]; 50 μg,14.2 min
same,"Total Sleep Time, Reported Sleep Time, Change from Baseline, Mean",[2]; 50 μg,24.9 min
same,"Total Sleep Time, Reported Sleep Time, Change from Baseline, Median",[2]; 50 μg,20.0 min
same,"Total Sleep Time, Calculated Sleep Time, Change from Baseline, Mean",[2]; 100 μg,9.7 min
same,"Total Sleep Time, Calculated Sleep Time, Change from Baseline, Median",[2]; 100 μg,12.0 min
same,"Total Sleep Time, Reported Sleep Time, Change from Baseline, Mean",[2]; 100 μg,19.0 min
same,"Total Sleep Time, Reported Sleep Time, Change from Baseline, Median",[2]; 100 μg,20.0 min
